From patent US20220119772A1, “COMPOSITIONS AND METHODS FOR TREATMENT OF A MALABSORPTIVE DISORDER” (CHILDREN'S HOSPITAL MEDICAL CENTER, priority 2019, published 2022)
Ends that are not written are not given here.

Key:
[1] = tested on: human small intestinal tissue (transplanted HIOs); test: Ussing chamber electrophysiology, peptides/chemicals added ex vivo, transplanted HIO tissue; assay type: cell-based; conditions: for initial Isc response to luminal glucose: then 25 mM D-glucose
Method: (§1) 28-35 days after spheroid generation, HIOs were removed from Matrigel and transplanted under the kidney capsule of immune deficient NOD.Cg-Prkdc^scidI12rg^tmIWjl/SzJ (NSG) mice as previously described^16. NSG mice were maintained on Bactrim chow for a minimum of 2 weeks prior to transplantation and thereafter for the duration of the experiment (8-14 weeks).
(§2) Electrophysiological experiments were conducted as described^28 with minor modifications. Mouse jejunum and transplanted HIOs were dissected and immediately placed in ice-cold Krebs-Ringer solution. Tissues were opened to create a flat epithelial surface. Because seromuscular stripping is associated with release of cyclooxygenases and prostaglandins^28, and prostaglandins can stimulate L-cells to release GLP1, GLP2 and PYY^36, Applicant performed the Ussing chamber experiments in intestinal tissue with an intact muscular layer. Tissues were mounted into sliders (0.031 cm^2 area slider, P2307, Physiological Instruments) and placed in an Ussing chamber with reservoirs containing 5 mL buffer (115 mM NaCl, 1.2 mM CaCl2, 1.2 mM MgCl2, 25 mM NaHCO3, 2.4 mM K2HPO4 and 0.4 mM KH2PO4). The mucosal and serosal tissue surfaces were bathed in the same solution, with the exception of 10 mM glucose in the serosal buffer and 10 mM mannitol in the luminal buffer. Mucosal and serosal reservoir solutions were gassed with 95% O2 and 5% CO2 to pH 7.4 and maintained at 37° C. by a circulating water bath behind the reservoir chambers. Electrophysiology parameters were recorded as previously described^37. Tissue was allowed to equilibrate to a basal steady-state for a minimum of 30 minutes before the addition of chemicals or peptides. 10 nM tetrodotoxin (Tocris) was added to the serosal buffer bathing mouse intestine to inhibit voltage-gated neuronal firing and allowed to incubate for a minimum of 10 minutes before basal Isc recording. D-glucose and Gly-Sar were added to the luminal side of the chamber once the VIP-induced Isc had stabilized at a maximum value.

[2] = tested on: mouse jejunum; test: Ussing chamber electrophysiology, peptides/chemicals added ex vivo, mouse jejunum; assay type: cell-based; conditions: for initial Isc response to luminal glucose: then 25 mM D-glucose
Method: as §2

[3] = tested on: HIO-derived enteroids; test: Enteroid swelling assay (VIP-induced, CFTR-mediated ion and water efflux); assay type: cell-based, human; conditions: for VIP-induced enteroid swelling: 10 nM VIP, 6 h, 10 nM PYY or 20 μM CFTR-172 added 24 h before imaging
Method: Enteroids were plated in 10 μL Matrigel on an 8-chamber glass bottom slide (Ibidi) and maintained as described above. 3-5 days post-plating, the slide was mounted on an inverted confocal microscope (Nikon) fitted with an incubation chamber set to 37° C. and 5% CO2. Media was changed to include 10 nM VIP (Tocris). In some experiments, the media was changed 24 hours prior to imaging to include 20 μM CFTR (inh)-172 (Millipore Sigma) or 10 nM PYY (Phoenix Pharmaceuticals). Images were acquired every 5 minutes at 4× magnification. After 6 hours, some HIOEs swelled to the point of bursting; therefore, Applicant used images acquired at time 0 and at 6 hours for quantification. The area of 10 representative enteroids per well was quantified using NIS Elements software at both time points. The outline of individual enteroids was traced manually and the area calculated by NIS Elements. Fold change at 6 hours over baseline was reported. Data include a minimum of three independent experiments per condition.

[4] = tested on: SLC9A3 (NHE3) expression; test: qPCR of SLC9A3 (NHE3) expression in enteroids; assay type: cell-based, human
Method: RNA was extracted using Nucleospin RNA extraction kit (Macharey-Nagel) and reverse transcribed into cDNA using Superscript VILO (Invitrogen) according to manufacturer's instruction. qPCR primers were designed using NCBI PrimerBlast. Primer sequences are listed in the table below. qPCR was performed using Quantitect SYBR® Green PCR kit (QIAGEN) and a QuantStudio 3 Flex Real-Time PCR System (Applied Biosystems). Relative expression was determined using the […] method and normalizing to PPIA (cyclophilin A). Samples from at least three independent passages were used for quantification.
(§3) Enteroids were differentiated for 5-7 days in the presence of vehicle (water), 10 nM VIP (Tocris) or 10 nM PYY (Phoenix Pharmaceuticals) and 10 nM VIP. On the final day, enteroids were removed from Matrigel and enzymatically dissociated into single-cell suspension using 0.25% Trypsin-EDTA. Cell suspensions were counted and equal cell numbers of dissociated HIOEs were incubated in pHrodo Green AM Intracellular pH indicator (ThermoFisher Scientific) according to manufacturer's directions for 30 minutes at 37 C., washed with 1X PBS, and analyzed by flow cytometry.

[5] = tested on: VillinCre;Neurog3flox/flox (EEC-deficient) mice; test: PYY rescue of EEC-deficient mice (daily i.p. injection), with ex vivo analysis of jejunum; assay type: in vivo, mouse
Method: as §2
(§4) After mechanical and enzymatic dissociation, tissues were filtered through a 40 μm cell strainer to obtain a single-cell suspension. In all experiments, samples were labeled with either CDH1-mRuby2 or Anti-EpCam-APC (BD Biosciences) to distinguish epithelial cells and incubated with SYTOX Blue dead cell stain (Life Technologies) or 7-AAD (BD Pharmingen). Forward scatter and side scatter were used to discriminate doublets and cellular debris. A minimum of 50,000 events per sample was recorded using an LSR Fortessa flow cytometer (BD Biosciences) and data was analyzed using FACSDiva software (BD Biosciences).
VillinCre;Neurog3^flox/flox mice^4 and their littermates were weighed, genotyped and visually examined for liquid feces daily beginning at postnatal day 10. Applicant established a diarrhea score, with 3 representing wet, yellow feces that smeared the perianal fur, and 0 representing normal, dry, brown, well-defined pellets. Mutant mice which suffered from diarrhea score 3 were included in the rescue experiment. 10 μg PYY (Phoenix Pharmaceuticals) was diluted in water and added to 20 μl DPP4 inhibitor (Millipore) to a final volume of 100 μl per mouse. Mice were injected intraperitoneally with this cocktail within 2 hours of the onset of the dark cycle (7 pm) daily until analysis at postnatal day 28-35. Mice were given access to solid chow on the floor of the cage beginning at postnatal day 10 and weaned at postnatal day 21.

[6] = tested on: HIO-derived enteroids; test: Intracellular pH assay (pHrodo, flow cytometry) in enteroids; assay type: cell-based, human
Method: as §3, §4

[7] = tested on: EEC-deficient HIOs transplanted in NSG mice; test: PYY treatment of NSG mice hosting EEC-deficient HIOs, Ussing chamber analysis of HIO tissue; assay type: in vivo, human
Method: as §1
Electrophysiological experiments were conducted as described^28 with minor modifications. Mouse jejunum and transplanted HIOs were dissected and immediately placed in ice-cold Krebs-Ringer solution. Tissues were opened to create a flat epithelial surface. Because seromuscular stripping is associated with release of cyclooxygenases and prostaglandins^28, and prostaglandins can stimulate L-cells to release GLP1, GLP2 and PYY^36, Applicant performed the Ussing chamber experiments in intestinal tissue with an intact muscular layer. […] Electrophysiology parameters were recorded as previously described^37. […]
NSG mice hosting HIOs were treated with 25 μg PYY (Phoenix Pharmaceuticals) diluted in water to 100 μL by intraperitoneal injection. Mice were treated daily for a minimum of 10 days after HIOs had been maturing for 8 weeks, then dissected and analyzed.

In the case of `O=C(O)c1ccc(/C=C2\SC(=S)N(c3cccc(C(F)(F)F)c3)C2=O)cc1` [CFTR-172], the “electrogenic response to VIP” value ([1]; wild-type and EEC-deficient human tissue, 20 μM CFTR-172) is reported as “blocked”, the “electrogenic response to VIP” value ([2]; wild type and mutant jejunum pre-treated with 20 μM CFTR-172) is reported as “blocked” and the VIP-induced enteroid swelling ([3]; EEC-deficient enteroids) is reported as “blocked”. For the same compound, the VIP-induced enteroid swelling ([3]; wild type enteroids) was “blocked”.

“PYY: Peptide YY, PYY(1-36) from Phoenix Pharmaceuticals; EEC-derived gut peptide acting on NPY1R; co-injected with DPP4 inhibitor in mice” was tested, and the “basal Isc” value ([1]; EEC-deficient (mutant) human tissue, 10 nM PYY added) was “lowered the basal Isc”, the “initial Isc response to luminal glucose” value ([1]; EEC-deficient HIO tissue treated with VIP, pre-treatment with 10 nM PYY) was “returned to wild type levels” and the “magnitude of response (ΔIsc) to VIP” value ([1]; EEC-deficient mutant HIOs, 10 nM VIP, exogenous PYY added) was “reduced the magnitude of response (ΔIsc) to VIP”. The SLC9A3 expression ([4]; EEC-deficient enteroids, PYY concurrently with VIP, 5-7 days) was “restored SLC9A3 expression to not significantly different from untreated”, the “basal Isc” value ([2]; EEC-deficient (mutant) mouse tissue, 10 nM PYY added) was “lowered the basal Isc” and the “initial Isc response to luminal glucose” value ([2]; EEC-deficient mouse tissue treated with VIP, pre-treatment with 10 nM PYY) was “returned to wild type levels”. For the same compound, the “Isc response to luminal dipeptide Gly-Sar” value ([2]; EEC-deficient mouse tissue, 10 minutes pre-treatment with 10 nM PYY, VIP present) was “did not alter the Isc response to Gly-Sar”, the “magnitude of response (ΔIsc) to VIP” value ([2]; EEC-deficient mutant mice, 10 nM VIP, exogenous PYY added) was “reduced the magnitude of response (ΔIsc) to VIP” and the VIP-induced enteroid swelling ([3]; EEC-deficient enteroids) was “significant inhibition of VIP-induced swelling”. The VIP-induced enteroid swelling ([3]; wild type enteroids) was “significant inhibition of VIP-induced swelling”, the “survival of EEC-deficient (mutant) mice” value ([5]; 10 μg PYY(1-36) i.p. once daily from P10, co-injected with DPP4 inhibitor) was “up to 88%” and the “Isc response to luminal Gly-Sar” value ([5]; EEC-deficient mice, long-term PYY treatment, compared to untreated mutant) was “improved Isc response to luminal Gly-Sar”. The “response to luminal glucose” value ([5]; EEC-deficient mouse intestine after in vivo PYY treatment) was “restores a normal glucose response”, the “MFI of pHrodo intensity (intracellular pH, proton transport)” value ([5]; EEC-deficient vs EEC-rich regions of mosaic jejunum after PYY treatment) was “normalized” and the “electrogenic response to VIP” value ([5]; jejunum of mutant mice treated with PYY in vivo) was “restored to wild type levels”. For the same compound, the “basal (resting) Isc of jejunum” value ([5]; mutant jejunum in Ussing chamber after in vivo injections of PYY) was “significantly decreased”, the “diarrhea score (average)” value ([5]; within 48 hours of PYY treatment, score 3 = watery diarrhea, 0 = well-defined pellets, 10 μg PYY i.p. daily with DPP4 inhibitor) was 1 and the “intracellular pH” value ([6]; EEC-deficient enteroids, 10 nM VIP with concurrent 10 nM PYY for 5-7 days) was “normalized the pH in EEC-deficient enteroids”. For the same compound, the “response to luminal glucose” value ([7]; EEC-deficient HIOs, host animals injected with 25 μg PYY i.p. daily for 10 days) was “restores a normal glucose response” and the “Isc response to luminal Gly-Sar” value ([7]; EEC-deficient transplanted HIOs, host animals treated long-term with PYY, compared to untreated mutant) was “improved Isc response to luminal Gly-Sar”.

For “VIP: vasoactive intestinal peptide (Tocris), ENS-derived peptide signalling via VIPR1 to raise cAMP (HSDAVFTDNYTRLRKQMAVKKYLNSILN-NH2; ends and bridges not checked; UniProt P01282 125-152, looked up)”, the SLC9A3 expression ([4]; EEC-deficient enteroids, 5-7 days of exposure to VIP) was “reduced”, the SLC9A3 expression ([4]; wild type enteroids, 5-7 days of exposure to VIP) was “reduced” and the “ion and water transport as measured by organoid swelling” value ([3]; 10 nM VIP added to enteroids) was “induced ion and water transport”. The “intracellular pH” value ([6]; EEC-deficient enteroids differentiated with 10 nM VIP for 5-7 days) was “developed an H^+ imbalance with an acidic cytoplasm”.

With `NC(=O)NCc1ccc(CNC(=O)[C@@H](CCCN=C(N)N)NC(=O)C(c2ccccc2)c2ccccc2)cc1` [BIB03304, N-[(1R)-1-[[[[4-[[(Amirtocarbortyl)amino]methyl]phenyl]methyl]amino]carbonyl]-4-[(aminoiminomethyl)amino]butyl]-α-phenyl-benzeneacetamide ditrifluoroacetate] the “initial Isc response to luminal glucose” value ([1]; wild-type HIO tissue treated with VIP, NPY1R antagonist BIB03304) was “caused an abnormal initial response to glucose that mimicked EEC-deficient tissues”, the “response (ΔIsc) to VIP” value ([1]; wild-type human tissue, 10 nM VIP, PYY receptor inhibited with BIB03304) was “elevated response to VIP compared to untreated wild-type” and the “basal Isc” value ([1]; wild-type human tissue, 300 nM BIB03304 added) was “reproducibly increased the basal Isc”. The “Isc response to luminal dipeptide Gly-Sar” value ([1]; wild-type human tissue, 10 minutes pre-treatment with 300 nM BIB03304) was “did not alter the Isc response to Gly-Sar”, the “initial Isc response to luminal glucose” value ([2]; wild-type mouse tissue treated with VIP, NPY1R antagonist BIB03304) was “caused an abnormal initial response to glucose that mimicked EEC-deficient tissues” and the “response (ΔIsc) to VIP” value ([2]; wild-type mouse tissue, 10 nM VIP, PYY receptor inhibited with BIB03304) was “elevated response to VIP compared to untreated wild-type”. For the same compound, the “basal Isc” value ([2]; wild-type mouse tissue, 300 nM BIB03304 added) was “reproducibly increased the basal Isc” and the “Isc response to luminal dipeptide Gly-Sar” value ([2]; wild-type mouse tissue, 10 minutes pre-treatment with 300 nM BIB03304) was “did not alter the Isc response to Gly-Sar”.
